Measurements from PMC9146215, “Design of D-Amino Acids SARS-CoV-2 Main Protease Inhibitors Using the Cationic Peptide from Rattlesnake Venom as a Scaffold” (Pharmaceuticals, 2022).
Positions of bridges follow the written chain, without caps; N, C: chain ends. Non-standard residues stand in square brackets, D forms with d. Residues, ends and D or L forms follow the SMILES beside them. No end group written: not given here.

Assays:
[1] = tested on: Vero CCL-81 cells; assay: MTT cell viability assay; assay type: cell-based, African green monkey; conditions: n = 3
Method: Therefore, Vero cells were cultivated in DMEM medium supplemented with 2% fetal calf serum (FCS) and 1% penicillin/streptomycin. A total of 2000 cells per well in a volume of 100 µL were seeded on flat-bottomed 96-well plates (VWR, Radnor, USA) and incubated in a 95% humidified atmosphere with 5% CO2 at 37 °C for 24 h. Subsequently, the cells were treated with 0.2, 1, 5, 10, 25, 50, and 98 µM of each molecule at 37 °C with 5% CO2 for 24 h.
According to the manufacturer’s instructions, cell viability was measured using the Cell Proliferation Kit I (Roche, Basel, Switzerland) in a 3-fold determination. The absorbance of the formazan product was determined by measuring the absorption at 570 nm and subtracted by the absorbance at 690 nm in a microplate reader (BMG Labtech, Ortenberg, Germany). The results were normalised to the mean value of cells treated with medium only. As a […] control for cytotoxicity, 0.1% Triton X-100 diluted in the medium was used. Cell viability was calculated according to Equation (2):(T/C) × 100%(2) where T and C represented the optical density of the treated well and control groups, respectively.

[2] = biological target: T1, SARS-CoV-2 3CL^pro (Severe acute respiratory syndrome coronavirus 2, UniProt P0DTD1); assay: Determination of inhibition mode (Lineweaver-Burk plot); assay type: biochemical; conditions: 0.5 µM 3CLpro, 30 min incubation at RT, triplicate
T1 construct: SARS-CoV-2 3CL^pro (Uniprot entry: P0DTD1, virus strain: hCoV-19/Wuhan/WIV04/2019) was cloned, expressed, and purified; GST (cleaved yes); made in house; host or cells: E. coli Lemo21 (DE3)
Method: The inhibition mode was determined using different final concentrations of the inhibitors and substrate. […] The remaining L-peptides were not tested.
Briefly, 0.5 µM SARS-CoV-2 3CL^pro was incubated with the inhibitor, in various concentrations, for 30 min at RT. Subsequently, the reaction was initiated by adding the corresponding concentration series of the substrate. The data were analysed using a Lineweaver-Burk plot; therefore, the reciprocal of velocity (1/V) vs the reciprocal of the substrate concentration (1/[S]) was compared. All measurements were performed in triplicate, and data are presented as mean ± SD.

[3] = biological target: T1, SARS-CoV-2 3CL^pro; assay: Inhibitor stability over 24 h (24 h inhibition experiment); assay type: biochemical; conditions: 0.5 µM 3CLpro with 5 µM peptide, 1/2 h to 24 h at RT, triplicate
Method: Briefly, 0.5 µM SARS-CoV-2 3CL^pro was incubated with 5 µM of the peptide and incubated for 1/2 h, 1 h, 2 h, 3 h, 4 h, 5 h, and 24 h at RT. The control was performed with the 3CL^pro in the absence of the peptide and measured together after each time point. Subsequently, the reaction was initiated by the addition of the substrate. All measurements were performed in triplicate, and data are presented as mean ± SD.

[4] = biological target: pepsin (Sus scrofa, UniProt P00791); assay: L- and D-peptide stability against pepsin hydrolysis (simulated gastric fluid); assay type: in vitro ADME; conditions: simulated gastric fluid: 3.2 mg/mL pepsin, pH 1.0, 37 °C, 4 and 8 h; RP-HPLC
Chain of pepsin (P00791 60-385): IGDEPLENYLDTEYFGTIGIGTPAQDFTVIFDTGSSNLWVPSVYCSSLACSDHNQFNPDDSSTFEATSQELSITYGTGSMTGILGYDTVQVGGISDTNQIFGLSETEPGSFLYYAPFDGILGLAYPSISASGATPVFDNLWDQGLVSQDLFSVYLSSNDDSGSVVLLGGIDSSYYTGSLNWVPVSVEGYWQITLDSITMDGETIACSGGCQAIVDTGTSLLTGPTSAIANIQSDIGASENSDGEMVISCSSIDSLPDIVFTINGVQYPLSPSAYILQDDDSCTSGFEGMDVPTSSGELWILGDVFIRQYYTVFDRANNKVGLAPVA
Method: (§1) As protein hydrolysis is initiated by pepsin, we have performed a hydrolysis experiment simulating gastric fluid for both selected L- and D-peptides. After incubation over 4 and 8 h, the sample was analysed using RP-HPLC (Supplementary Figure S8).
(§2) The preparation of the pepsin solution was performed as described before. The experiment solution contains 2 mg/mL NaCl, 3.2 mg/mL pepsin, and 80 mM HCL at a pH 1.0. This solution simulated gastric fluid. […] Samples were taken after 0 h, 4 h, and 8 h. The samples were analysed by reversed-phase high-performance liquid chromatography (RP-HPLC). The RP-HPLC system (Agilent Technologies, Santa Clara, CA, USA; 1200 series) consisted of a manual injector, quaternary pump, a thermostatted column compartment, and a variable wavelength detector. Chromatography was performed with a C18 column (Agilent Technologies, Santa Clara, CA, USA; ZORBAX 300SB-C18 5 µm, 4.6 × 250 mm) at 25 °C and 214 nm with a flow rate of 1 mL/min. The sample injection volume was 20 µL. Chromatograms were recorded and analysed with the Agilent software ChemStation (G2175BA; B03.01). Mobile phases were acetonitrile (A) and water (B), each supplemented with 0.15% trifluoroacetic acid (TFA) (v/v). The samples were measured isocratically at 10% solvent A for 30 min.

[5] = tested on: SARS-CoV-2 B1.1 isolate (NRW-42) in Vero cells; assay type: cell-based
[6] = biological target: T1, SARS-CoV-2 3CL^pro; assay: Detergent-based (Triton X-100) control assay for aggregation-based promiscuous inhibition; assay type: biochemical; conditions: 0.001%, 0.01%, 0.1% Triton X-100; four peptide concentrations; triplicate
Method: A detergent-based control assay was performed to exclude inhibitors that possibly act as aggregators of the 3CL^pro by adding 0.001%, 0.01%, and 0.1% of Triton X-100 to the reaction. […] All measurements were performed in triplicate, and data are presented as mean ± SD.

[7] = biological target: T1, SARS-CoV-2 3CL^pro; assay: SARS-CoV-2 3CLpro fluorogenic (DABCYL/EDANS substrate) inhibition assay; assay type: biochemical; conditions: 0.5 µM 3CLpro, n = 3; for IC50: 30 min pre-incubation with inhibitor at RT, 50 µM substrate, 37 °C, pH 7.2, 1 mM TCEP, mean ± SD, read-out: IC50 [µM] ± STD
Method: The SARS-CoV-2 3CL^pro activity assay was performed using DABCYL-KTSAVLQ/SGFRKME-EDANS (Bachem, Switzerland) as substrate.
SARS-CoV-2 3CL^pro activity assay was performed using a fluorogenic substrate DABCYL-KTSAVLQ↓SGFRKME-EDANS (Bachem, Bubendorf, Switzerland) in a buffer containing 20 mM Tris pH 7.2, 200 mM NaCl, 1 mM EDTA, and 1 mM TCEP [31, 32, 33, 34]. The reaction mixture was pipetted in a Corning 96-well plate (Merck, Darmstadt, Germany) containing 0.5 µM protein. The assay was initiated with the addition of the substrate at a final concentration of 50 µM. The fluorescence intensities were measured at 60 s intervals over 30 min using an Infinite 200 PRO plate reader (Tecan, Männedorf, Switzerland), and the temperature was set to 37 °C. The excitation and emission wavelengths were 360 and 460 nm, respectively.
The activity assay described above investigated the inhibition of SARS-CoV-2 3CL^pro activity by Cro, L- and D-CDPs. 30 µM of the peptides was used for a preliminary screening test.
For the final inhibition assays, 0.5 µM of the protein was mixed with 0–300 µM Cro, 0–150 µM L-CDPs, and 0–125 µM D-CDPs and subsequently incubated for 30 min at RT. An additional experiment was conducted where the substrate and the inhibitor were added simultaneously (without incubation). When the substrate with a final concentration of 50 µM was added to the mixture, the fluorescence intensities were measured at 60 s intervals over 30 min using an Infinite 200 PRO plate reader (Tecan, Männedorf, Switzerland). The temperature was set to 37 °C, and the excitation and emission wavelengths were 360 and 460 nm, respectively. Inhibition assays were performed in triplicate.
The IC50 value was calculated by plotting the initial velocity against various concentrations of the combined molecules using a dose-response curve in GraphPad Prism5 software […]. Data are presented as mean ± SD.

[8] = tested on: all cell types investigated; conditions: rapid translocation efficiency; cited from earlier work
Source text: These properties were mainly determined by the overall positive net surface charge distribution of crotamine. Characterised as a novel cell-penetrating polypeptide (CPP) nanocarrier, Cro has biotechnological ...

[9] = L- and D-peptide stability against pepsin hydrolysis (simulated gastric fluid); assay type: in vitro ADME; conditions: simulated gastric fluid with pepsin (3.2 mg/mL); simulated gastric fluid: 2 mg/mL NaCl, 3.2 mg/mL pepsin, 80 mM HCl, pH 1.0; 37 °C, 500 rpm; after 8 h; RP-HPLC C18, 214 nm; read-out: Peptide amount remaining after pepsin incubation
Method: as §1, §2

## COC(=O)[C@@H](CCCCN)NC(=O)[C@@H](CCCCN)NC(=O)[C@@H](CS)NC(=O)[C@@H](CS)NC(=O)[C@@H](CCCCN)NC(=O)[C@@H](Cc1c[nH]c2ccccc12)NC(=O)[C@@H](CCCNC(=N)N)NC(=O)[C@@H](Cc1c[nH]c2ccccc12)NC(=O)[C@@H](CCCNC(=N)N)NC(=O)[C@@H](CS)NC(=O)[C@@H](CC(=O)O)NC(=O)[C@@H](CCSC)NC(=O)[C@@H](CCCCN)NC(C)=O [D-CDP1] (Ac-[dK][dM][dD][dC][dR][dW][dR][dW][dK][dC][dC][dK][dK]-OMe)
[1]
  Cytotoxic effect at the calculated IC50 concentrations: no cytotoxic effect
[2]
  Inhibition Type: Competitive
[3]
  Inhibition of SARS-CoV-2 3CLpro over 24 h (stability of inhibitor): constant inhibition
[4]
  Stability against pepsin hydrolysis (in words): stable against pepsin hydrolysis
[5]
  Viral RNA in cell culture supernatant: significant decrease in viral RNA
[6]
  Aggregation-based inhibition (inhibition diminished by detergent): not observed

## YKQCHKKGGHCFPKEKICLPPSSDFGKMDCRWRWKCCKKGSG (disulfide 4-36, 11-30, 18-37) [Crotamine]
[7]
  IC50: 40 ± 3.1 µM
[8]
  Time for translocation into cells: ≤ 5 min

## COC(=O)[C@H](CCCCN)NC(=O)[C@H](CCCCN)NC(=O)[C@H](CS)NC(=O)[C@H](CS)NC(=O)[C@H](CCCCN)NC(=O)[C@H](Cc1c[nH]c2ccccc12)NC(=O)[C@H](CCCNC(=N)N)NC(=O)[C@H](Cc1c[nH]c2ccccc12)NC(=O)[C@H](CCCNC(=N)N)NC(=O)[C@H](CS)NC(=O)[C@H](CC(=O)O)NC(=O)[C@H](CCSC)NC(=O)[C@H](CCCCN)NC(C)=O [L-CDP1] (Ac-KMDCRWRWKCCKK-OMe)
[2]
  Inhibition Type: Competitive
[7]; dose-dependent study
  Concentration giving 100% protease inhibition: 30 µM
[3]
  Inhibition of SARS-CoV-2 3CLpro over 24 h (stability of inhibitor): constant inhibition
[9]
  remaining at 8 h: ~50%
[6]
  Aggregation-based inhibition (inhibition diminished by detergent): not observed

## COC(=O)[C@H](CCCCN)NC(=O)[C@H](CCCCN)NC(=O)[C@H](CO)NC(=O)[C@H](CO)NC(=O)[C@H](CCCCN)NC(=O)[C@H](Cc1c[nH]c2ccccc12)NC(=O)[C@H](CCCNC(=N)N)NC(=O)[C@H](Cc1c[nH]c2ccccc12)NC(=O)[C@H](CCCNC(=N)N)NC(=O)[C@H](CS)NC(=O)[C@H](CC(=O)O)NC(=O)[C@H](CCSC)NC(=O)[C@H](CCCCN)NC(C)=O [L-CDP3] (Ac-KMDCRWRWKSSKK-OMe)
[7]
  IC50: 8.5 ± 1 µM
